These results are taken from patent US20040209959A1, “Congeners of acetaminophen and related compounds as substrates for fatty acid conjugation and their use in treatment of pain, fever and inflammation” (priority 2001, published 2004).

Data set [1] deals with T1, vanilloid receptors on vasodilator sensory nerves (Rattus norvegicus, UniProt O35433).
T1 construct: from tissue; host or cells: mesenteric arteries from female Wistar-Hannover rats
The data set can be described thus: Vasodilator effect in isolated rat mesenteric artery segments contracted with phenylephrine. The conditions noted are these: for activation of vanilloid receptors on perivascular sensory nerves: FIG. 7; for relaxation of arterial segments contracted with phenylephrine: FIG. 7c; for effect on the vasodilator action of AM404: capsazepine 3 μM, ruthenium red 1 μM; for inhibition of the effect of capsaicin (antagonist action on vanilloid receptors): 1 mM acetaminophen or 100 μM p-aminophenol for 30 min; for vasorelaxation per se (agonist action on vanilloid receptors): p-aminophenol in the presence of ascorbic acid. As to the method: Recording of tension. Experiments were performed on mesenteric arteries from female Wistar-Hannover rats (250 g) as described (48). Briefly, the arteries were cut into ring segments and mounted in tissue baths, containing aerated physiological salt solution (5% CO2 and 95% O2; 37° C.; pH 7.4). […] We studied relaxant responses in preparations contracted with phenylephrine. When stable contractions were obtained, substances were added cumulatively to determine concentration-response relationships.
Calculations and statistics. Data are presented as means ±S.E.M. (vertical lines in figures), and n indicates the number of animals unless otherwise stated. GraphPad Prism 3.0 software was used for curve fitting (non-linear regressions) and calculations of pEC50 values. Mann-Whitney U-test or Student's t-test on log transformed values was used for statistical analysis. Statistical significance was accepted when P<0.05.

A further data set deals with T2, COX-1 (Ovis aries, UniProt P05979).
T2 sequence (P05979 25-600): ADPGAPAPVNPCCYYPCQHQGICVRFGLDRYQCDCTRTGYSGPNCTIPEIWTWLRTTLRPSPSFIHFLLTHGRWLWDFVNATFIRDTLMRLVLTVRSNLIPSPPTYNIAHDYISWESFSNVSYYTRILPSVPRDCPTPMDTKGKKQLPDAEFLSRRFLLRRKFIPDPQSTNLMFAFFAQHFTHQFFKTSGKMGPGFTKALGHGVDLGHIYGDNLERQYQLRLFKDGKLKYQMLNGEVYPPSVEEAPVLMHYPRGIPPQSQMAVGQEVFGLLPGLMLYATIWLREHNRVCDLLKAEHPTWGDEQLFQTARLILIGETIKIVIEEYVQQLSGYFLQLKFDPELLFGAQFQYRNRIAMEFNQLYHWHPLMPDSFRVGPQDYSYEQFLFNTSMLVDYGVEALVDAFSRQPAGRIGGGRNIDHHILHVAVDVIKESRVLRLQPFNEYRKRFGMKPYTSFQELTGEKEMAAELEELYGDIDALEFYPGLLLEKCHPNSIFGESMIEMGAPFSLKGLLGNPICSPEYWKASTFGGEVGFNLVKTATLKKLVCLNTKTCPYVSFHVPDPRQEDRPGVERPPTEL
The conditions noted are these: isolated enzyme preparation; 10 μM arachidonic acid. The method, then: (§1) COX activity was measured as prostaglandin formation in the presence of 10 μM arachidonic acid.
(§2) COX-1 and COX-2 assays. COX-1 and COX-2 activity was determined in the presence of 10 μM arachidonic acid using a COX (ovine) inhibitor screening assay (Cayman). Drugs were incubated with the enzyme preparation 8 min before application of arachidonic acid. Prostaglandin formation was used as a measure of COX activity and quantified via enzyme immunoassay (EIA).

A further data set has as its target T3, COX-2 (Ovis aries, UniProt P79208).
T3 sequence (P79208 17-603): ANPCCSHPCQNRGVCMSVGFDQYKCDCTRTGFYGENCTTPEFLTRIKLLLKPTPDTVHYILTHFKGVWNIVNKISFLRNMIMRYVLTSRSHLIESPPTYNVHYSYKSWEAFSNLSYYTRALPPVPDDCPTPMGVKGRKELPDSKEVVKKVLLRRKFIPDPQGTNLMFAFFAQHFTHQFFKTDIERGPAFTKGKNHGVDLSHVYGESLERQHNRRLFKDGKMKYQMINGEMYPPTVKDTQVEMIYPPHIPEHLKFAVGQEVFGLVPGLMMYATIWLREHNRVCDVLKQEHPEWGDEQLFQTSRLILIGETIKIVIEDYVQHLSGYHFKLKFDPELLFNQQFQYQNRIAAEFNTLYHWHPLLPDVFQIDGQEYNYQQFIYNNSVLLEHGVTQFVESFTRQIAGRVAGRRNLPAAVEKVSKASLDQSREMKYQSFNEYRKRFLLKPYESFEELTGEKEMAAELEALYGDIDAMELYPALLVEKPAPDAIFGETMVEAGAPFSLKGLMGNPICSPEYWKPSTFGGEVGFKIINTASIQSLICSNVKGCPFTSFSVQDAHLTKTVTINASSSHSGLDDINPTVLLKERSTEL
The conditions noted are these: isolated enzyme preparation; 10 μM arachidonic acid. As to the method:
as §1, §2

Data set [2] deals with AM404 production in brain homogenates. The experiment in a line: Inhibition of AM404 formation in rat brain homogenates. The format is biochemical. The conditions noted are these: 1 hour pre-incubation, p-aminophenol plus arachidonic acid each 100 μM.
Procedure: (§3) Tissue homogenate experiments. The brain, liver, spinal cord and dorsal root ganglia from female Wistar-Hannover rats (250 g) were homogenised in a Tris buffer (10 mM, pH 7.6), containing EDTA (1 mM), to give 90-330 mg tissue ml^−1. We carried out experiments in aliquots of 200 μl homogenate at 37° C. as further explained in the text. The reactions were stopped by adding 1 ml ice-cold acetone containing 1 μM [^2H8]-anandamide. The samples were kept on ice until the acetone phase was evaporated in vacuo.
The procedure of data set [3]: In vivo experiments. Acetaminophen ([…]) or vehicle (saline) at a volume of 2-3 ml was given to female Wistar-Hannover rats (200-300 g) by an intraperitoneal injection. Some rats were pretreated with PMSF (10 mg kg^−1) or vehicle (saline:PEG 6000; 1:10 w/w) given subcutaneously (2-3 ml) 20 min before administration of acetaminophen. Approximately 20 min after injection of acetaminophen, the animals were killed to collect brain, liver, spinal cord and arterial blood. […] PMSF (0.1 mM) and ascorbic acid (0.3 mM) were also present in the Tris buffer and added to the blood samples to prevent degradation of fatty acid amides and p-aminophenol, respectively.
Quantitative analyses. The extraction residues were reconstituted in 100 μl methanol except for p-aminophenol, for which 100 μl 0.5% acetic acid was used. The quantitative analyses were performed using a Perkin Elmer 200 liquid chromatography system with autosampler (Applied Biosystems), coupled to an API 3000 tandem mass spectrometer (Applied Biosystems/MDS-SCIEX). All mobile phases were water-methanol gradients, containing 0.5% acetic acid, and the flow rate was 200 μl min^−1 except for arachidonic acid where it was 400 μl min^−1.
AM404, arachidonoyldopamine, arachidonoylserotonin and anandamide.
p-Aminophenol. Sample aliquots of 2 μl were injected on a Genesis phenyl column (150×2.1 mm; Jones). The mobile flow was initially 97% water for 2 min. […] The electrospray ion source was set at 450° C. and used in the positive ion mode. The ion spray voltage and declustering potential were set to 4500 volts and 55 volts, respectively. M/z 109.9/64.6 with a collision energy of 31 volts was used for the quantitative determinations.
The source holds these as a separate data set.

For a further data set, the system named is anandamide hydrolysis. The experiment in a line: Inhibition of [2H8]-anandamide hydrolysis in rat brain homogenates. Format: biochemical. The conditions noted are these: 1 hour pre-incubation, [2H8]-anandamide 10 μM.
The conditions of data set [4]: female, Wistar-Hannover, rat, pH 7.6.
Procedure: as §3
Sample aliquots of 5 μl were injected on a Genesis C8 column (20×2.1 mm; Jones). Initially, the mobile flow was 25% water for 5.5 min. […]
p-Aminophenol. […] M/z 109.9/64.6 with a collision energy of 31 volts was used for the quantitative determinations. […]
[5] abbreviates: PMSF 10 mg kg^−1 s.c. 20 min before acetaminophen.

The structures appear in SMILES notation.

T1 sequence (O35433 whole entry): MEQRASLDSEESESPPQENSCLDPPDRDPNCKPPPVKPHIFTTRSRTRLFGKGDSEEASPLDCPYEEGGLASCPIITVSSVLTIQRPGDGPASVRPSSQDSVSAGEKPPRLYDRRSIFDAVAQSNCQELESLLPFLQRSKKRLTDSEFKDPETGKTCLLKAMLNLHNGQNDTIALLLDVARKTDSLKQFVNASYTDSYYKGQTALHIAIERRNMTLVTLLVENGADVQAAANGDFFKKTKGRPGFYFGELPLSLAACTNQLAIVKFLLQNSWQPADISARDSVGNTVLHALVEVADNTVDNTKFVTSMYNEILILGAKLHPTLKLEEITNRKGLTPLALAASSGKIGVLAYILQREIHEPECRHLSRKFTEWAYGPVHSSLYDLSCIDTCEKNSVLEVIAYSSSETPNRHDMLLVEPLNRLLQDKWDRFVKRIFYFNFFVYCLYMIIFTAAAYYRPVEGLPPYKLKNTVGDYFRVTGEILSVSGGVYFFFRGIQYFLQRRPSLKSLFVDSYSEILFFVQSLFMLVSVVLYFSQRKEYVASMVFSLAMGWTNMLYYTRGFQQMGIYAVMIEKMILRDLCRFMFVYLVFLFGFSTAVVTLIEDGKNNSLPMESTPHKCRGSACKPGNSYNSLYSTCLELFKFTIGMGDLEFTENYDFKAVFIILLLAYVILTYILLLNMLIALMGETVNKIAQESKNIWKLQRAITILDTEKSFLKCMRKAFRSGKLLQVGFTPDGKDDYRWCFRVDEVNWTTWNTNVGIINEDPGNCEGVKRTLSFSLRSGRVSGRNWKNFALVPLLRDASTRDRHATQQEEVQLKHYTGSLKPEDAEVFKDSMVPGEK
Procedure for anandamide hydrolysis: as §3
Sample aliquots of 5 μl were injected on a Genesis C18 column (50×2.1 mm; Jones). The HPLC was operated isocratically at 20% water and 80% methanol. The electrospray ion source was operating in the negative ion mode at 370° C., the ion spray voltage was −3000 volts and the declustering potential was −120 volts. M/z 310.8/267.0 with a collision energy of −22 volts was used for the quantitative determinations.

Usually EC50 stands for the midpoint of the concentration-response curve. Higher therefore signals lower potency in that assay. In data set [1], `CCCCCC=CCC=CCC=CCC=CCCCC(=O)Nc1ccc(O)cc1` [AM404, N-(4-hydroxyphenyl)-5,8,11,14-eicosatetraenamide] gave an EC50 of 15.8 nM. For the same molecule, the “relaxation of arteries pre-treated with capsaicin” value in data set [1] (capsaicin 1 μM for 30 min) is reported as “unable to relax”. The “effect on COX-1 activity” value on COX-1 is recorded as “concentration-dependently inhibited”. Moreover, the “effect on COX-2 activity” value on COX-2 was “concentration-dependently inhibited”.
In the case of `CCCCC/C=C\C/C=C\C/C=C\C/C=C\CCCC(=O)NCCc1ccc(O)cc1` [arachidonoyltyramine], in data set [1], the “activation of vanilloid receptors on perivascular sensory nerves” value (shortened to “activation of vanilloid receptors”) is given as “activators” and the “relaxation of arterial segments contracted with phenylephrine” value is “concentration-dependent relaxation”.
With `CCCCC/C=C\C/C=C\C/C=C\C/C=C\CCCC(=O)OCC(O)CO` (stereo not drawn) [1-arachidonoylglycerol], the “activation of vanilloid receptors” value in data set [1] is given as “activators”.
Take `CCCCC/C=C\C/C=C\C/C=C\C/C=C\CCCC(=O)NCCc1ccc(O)c(OC)c1` [arachidonoyl-3-methoxytyramine]: in data set [1], the “activation of vanilloid receptors” value is “activators” and the “relaxation of arterial segments contracted with phenylephrine” value is “concentration-dependent relaxation”.
For `Oc1cc2c(cc1O)CN(C(=S)NCCc1ccc(Cl)cc1)CCC2` [capsazepine], the “effect on the vasodilator action of AM404” value in data set [1] was “inhibited”.
As for `NCCc1c[nH]c2ccc(O)cc12` [serotonin], the production of arachidonoylserotonin result (brain homogenates, serotonin 100 μM plus arachidonic acid 100 μM, 1 hour) is “substantial amounts”.
On to `O=S(=O)(F)Cc1ccccc1` [PMSF, phenyl-methyl-sulphonylfluoride], for which, in data set [2], the “pEC50 for inhibition of the formation of AM404” value came to 5.41±0.03. For the same molecule, for the setting “PMSF 100 μM added 1 hour before”, the “effect on formation of arachidonoyldopamine and arachidonoylserotonin” value is “almost abolished”. In data set [3] (setting [5]), the “effect on formation of AM404 in brain after acetaminophen” value is listed as “abolished” and the “reduction of p-aminophenol content in brain after acetaminophen” value was determined as 48%. Besides, the “pEC50 for inhibition of the hydrolysis of anandamide” value in the data set with anandamide hydrolysis is 5.28±0.07.
As to `Nc1ccc(O)cc1` [p-aminophenol], in data set [1], the “inhibition of the effect of capsaicin (antagonist action on vanilloid receptors)” value is “nor inhibited the effect of capsaicin” and the “vasorelaxation per se (agonist action on vanilloid receptors)” value is given as “neither induced vasorelaxation per se”. In addition, at COX-1, the “effect on COX-1 activity” value is listed as “No effect”. Moreover, the “effect on COX-2 activity” value at COX-2 is “No effect”.
Regarding `CC(=O)Nc1ccc(O)cc1` [acetaminophen], in data set [1], the “inhibition of the effect of capsaicin (antagonist action on vanilloid receptors)” value is listed as “nor inhibited the effect of capsaicin” and the “vasorelaxation per se (agonist action on vanilloid receptors)” value is “neither induced vasorelaxation per se”. Also, the “AM404 in brain, representative chromatogram of one animal” value in data set [3] (female, Wistar-Hannover, rat, in vivo, 20 min) stood at 23.4 pmol/g. Further, the “AM404 formation in brain homogenates” value in data set [4] (100 μM) is recorded as “did not result in any detectable levels of AM404”. Further, the “AM404 in brain homogenates” value in data set [4] (1 mM) turned out to be 14 ± 2.6 pmol/g. For the same molecule, the “effect on COX-1 activity” value on COX-1 was “No effect”. For the same molecule, the “effect on COX-2 activity” value on COX-2 is on record as “No effect”.
`CCCCC/C=C\C/C=C\C/C=C\C/C=C\CCCC(=O)OC(CO)CO` [2-arachidonoylglycerol]: in data set [1], the “activation of vanilloid receptors” value is “activators”.
As for `NCCc1ccc(O)c(O)c1` [dopamine], the production of arachidonoyldopamine entry (brain homogenates, dopamine 100 μM plus arachidonic acid 100 μM, 1 hour) is listed as “substantial amounts”.
Regarding `N.N.N.N.N.N.N.N.N.N.N.N.N.N.[Cl-].[Cl-].[Cl-].[Cl-].[Cl-].[Cl-].[O-2].[O-2].[Ru+3].[Ru+3].[Ru+4]` [ruthenium red], the “effect on the vasodilator action of AM404” value in data set [1] is on record as “inhibited”.
